What was measured:
[1] = system: differentiating TH17 cells; test: U-13C glutamine flux analysis in differentiating TH17 cells; type: cell-based, mouse; conditions: 2 mM U-13C-glutamine for 4 hours
Procedure: CD4 naïve T cells, differentiating TH17 or iTreg cells (68 hours) were incubated with fresh media prior to labeling. The cells were then cultured for 4 hours at 37° C. with medium where the glutamine was replaced with the corresponding stable isotope label: 2 mM U-^13C glutamine or 2 mM ^15N-α-glutamine for 4 hours at 37° C. The cells were quickly collected and quickly washed with phosphate buffer saline (PBS), pelleted, and snap frozen in liquid nitrogen. The frozen samples were kept in −80° C. until extraction. Cell extracts were prepared by first adding 80/20 MeOH/H2O at −60° C. to the frozen pellets and collecting the supernatant after centrifugation at 4° C. The extracted samples were analyzed by high-resolution liquid-chromatography-mass spectrometry. Unlabeled glutamine-fed cells were used as background. For negative mode metabolomics: Cell extracts obtained as described above were analyzed for relative abundance of metabolites by liquid chromatography-triple quadrupole mass spectrometry (LC-MS) using scheduled selective reaction monitoring (SRM) for each metabolite of interest, with the detector set to negative mode. Prior to injection, dried extracts were reconstituted in LC-MS grade water. LC separation was achieved by reverse-phase ion-pairing chromatography.

[2] = system: differentiating TH17 cells; test: TH17 differentiation of CD4 naïve T cells (IL17F-RFP/FOXP3-GFP reporter or intracellular staining of IL-17 and FOXP3); type: cell-based, mouse; conditions: compound added after 24 hours of TH17 differentiation, analyzed on day 6
Procedure: CD4 naïve T cells (CD4+CD25-CD62^highCD44^low) were obtained from interleukin (IL)-17F-red fluorescent protein (RFP)/FOXP3-green fluorescent protein (GFP) mice, which were characterized previously, or wild-type C57/BL6 mice, by cell sorting. 0.4 million cells were plated into 48 wells coated with anti-mouse CD3 (clone 145-2C11, eBioscience) […] and anti-mouse CD28 (clone 37.51, eBioscience) (1 μg/ml). The differentiation media for these naïve T cells was as follows: 0.5 ng/ml (or indicated) transforming growth factor (TGF) β, 200 U/ml mouse IL-2, 2 μg/ml anti-interferon (IFN) γ and 2 μg/ml anti-mouse IL4 for differentiation into iTreg cells; and 2.5 ng/ml TGFβ, 10 ng/ml mouse IL-1β, 10 ng/ml mouse IL-6, 10 ng/ml mouse IL-23, 2 μg/ml anti-mouse IFNγ, and anti-mouse IL-4 for differentiating into TH17 cells. The cells were supplemented with new medium at day 4. In cases in which small-molecule compounds were present, the fresh medium containing the same concentration of compounds was used. When necessary, the individual metabolite was added into the T-cell culture 6 hours later after initial cell plating. On day 6, the cells were analyzed for IL17F-RFP and FOXP3-GFP or the cells were collected and restimulated for 4-6 hours with PMA, inomycin, and Golgi-stop for intracellular staining in absence of indicated compounds.
To identify small molecules that regulate cell-fate switching of TH17/iTreg cells and to further understand the regulation of the TH17/iTreg balance, 10,000 individual small molecules were phenotypically screened using CD4 naïve T cells from IL-17F-RFP/FOXP3-GFP mice. The naïve T cells were cultured under optimal TH17 differentiation conditions and compounds that could reprogram TH17 differentiation toward iTreg cell fate were identified using the reporter readout. Briefly, after TH17 differentiation for 24 hours, compounds were added to TH17 culture, and the treatment was continued for an additional 5 days before the cells were analyzed for IL17F-RFP and FOXP3-GFP expression by high-throughput fluorescence-activated cell sorting (FACS) (FIG. 5a). […] This effect of reprogrammed differentiation was further confirmed by intracellular immunostaining of IL-17 and FOXP3 (FIG. 1a).

SMILES: NOCC(=O)O [AOA, (aminooxy)-acetic acid]
- de novo synthesis of α-KG and 2-HG (U-13C labeled, normalized to U-13C-glutamine) [1]: inhibited
- reprogramming of TH17 induction to iTreg cells (IL17F-expressing and FOXP3-expressing cells) [2]: reprogram TH17 induction to iTreg cells in a dose-dependent manner
